US5071957A, “Antibiotic BU-4061T” (Bristol-Myers Company, priority 1990, dated 1991)
≈ marks a conversion by molar mass, not a printed value.

What was measured:
[1] = system: B16-F10 (murine melanoma) cells; assay: In vitro cytotoxicity against B16-F10 cells; format: cell-based; conditions: 72 hours, colorimetric at 540 nm
Protocol: (§1) B16-F10 (murine melanoma) and Moser (human colorectal carcinoma) cells were grown to the logarithmic phase in the enriched Eagle minimum essential medium supplemented with fetal calf serum (FCS, 10%) and kanamycin (60 μg/ml), while HCT-116 (human colon carcinoma) was grown in McCoy's 5A medium supplemented with FCS (10%) penicillin (100 μ/ml) and streptomycin (100 μg/ml). B16-F10, Moser and HCT-116 cells were harvested and implanted into wells of a 96-well microtiter plate with test materials at the inoculum sizes of 3×10^4, 6×10^4 and 6×10^4 cells/ml, respectively. They were incubated at 37° C. in a humidified atmosphere of 5% CO2 and 95% air for 72 hours. The cytotoxicity against tumor cells was determined colorimetrically at 540 nm after staining viable cells.

[2] = system: HCT-116 (human colon carcinoma); assay: In vitro cytotoxicity against HCT-116 cells; format: cell-based; conditions: 72 hours, colorimetric at 540 nm
Protocol: as §1

[3] = system: Moser (human colorectal carcinoma) cells; assay: In vitro cytotoxicity against Moser cells; format: cell-based
Protocol: as §1

[4] = system: DNA synthesis in B16-F10 melanoma cells; assay: Inhibition of DNA synthesis (3H-thymidine incorporation) in B16-F10 melanoma cells; format: cell-based, murine
Protocol: (§2) Inhibitory effects of BU-4061T on the macromolecule (DNA, RNA and protein) synthesis were determined in cultured B16-F10 melanoma cells. B16-F10 cells (10^5 cells/ml) were incubated with the compound at 37° C. for 4.5 hours (for DNA synthesis) or 4 hours (for RNA and protein synthesis). Labelled precursor, ^3 H-thymidine, ^14 C-uridine or ^3 H-leucine was added to the culture and further incubated for 30 minutes (for DNA) or 60 minutes (for RNA and protein). After washing with chilled 5% trichloroacetic acid solution, the radioactivity incorporated into the acid-insoluble fraction of the tumor cells was determined by a liquid scintillation counter.

[5] = system: RNA synthesis in B16-F10 melanoma cells; assay: Inhibition of RNA synthesis (14C-uridine incorporation) in B16-F10 melanoma cells; format: cell-based, murine
Protocol: as §2

[6] = system: protein synthesis in B16-F10 melanoma cells; assay: Inhibition of protein synthesis (3H-leucine incorporation) in B16-F10 melanoma cells; format: cell-based, murine
Protocol: as §2

[7] = system: B16 melanoma; assay: Antitumor activity against B16 melanoma (ip)
Protocol: (§3) To determine in vivo antitumor activity of BU-4061T, male BDF1 mice were intraperitoneally inoculated with 0.5 ml of 10% melanotic melanoma B16 brei, and female CDF1 mice were intraperitoneally inoculated with 0.4 ml of diluted ascitic fluid containing 10^6 lymphocytic leukemia P388 cells. […] Test materials were intraperitoneally administered to mice on days 1, 5 and 9 (Q4D×3) or on days 1 to 9 (QlD×9).

[8] = system: P388 leukemia; assay: Antitumor activity against P388 leukemia (ip); conditions: Q1D × 9
Protocol: as §3

[9] = Solubility (physico-chemical properties); format: physicochemical
Source text: BU-4061T was obtained as a white amorphous powder. […] BU-4061T gave positive response to iodine vapor, ammonium molybdate-sulfuric acid solution and Rydon-Smith reagent, but negative response to ninhydrin and anthrone reagent.

For CC[C@H](C)[C@H](NC(=O)[C@H]([C@@H](C)CC)N(C)C(C)=O)C(=O)N[C@H](C(=O)N[C@@H](CC(C)C)C(=O)[C@@]1(C)CO1)[C@@H](C)O [BU-4061T], the “IC50 B16-F10” value [1] was 0.0047 µg/mL (≈ 0.00847 µM), the “IC50 HCT-116” value [2] was 0.0067 µg/mL (≈ 0.0121 µM) and the “IC50 Moser” value ([3]; 72 hours, colorimetric at 540 nm) was 0.17 µg/mL (≈ 0.306 µM). The “cytotoxicity against Moser cells (in words)” value ([3]; compared with B16-F10 and HCT-116 cells) was “weaker than that against B16-F10 and HCT-116 cells”, the “inhibitory effect on DNA synthesis (in words)” value [4] was “moderate inhibitory effects” and the “IC50 DNA” value ([4]; 4.5 hours + 30 minutes 3H-thymidine) was 16 µg/mL. For the same compound, the “inhibitory effect on RNA synthesis (in words)” value [5] was “moderate inhibitory effects”, the “IC50 RNA” value ([5]; 4 hours + 60 minutes 14C-uridine) was 46 µg/mL and the “inhibition of incorporation of leucine into the protein fraction (in words)” value ([6]; 100 μg/ml, the highest concentration tested) was “did not significantly inhibit”. The “IC50 Protein” value ([6]; B16-F10 cells, 4 hours + 60 minutes 3H-leucine) was > 100 µg/mL, the “MST (median survival time)” value ([7]; 0.063 mg/kg/day ip, Q1D × 9) was 15.5 days and the T/C ([7]; 0.063 mg/kg/day ip, Q1D × 9) was 119%. For the same compound, the “MST (median survival time)” value ([7]; 0.13 mg/kg/day ip, Q1D × 9) was 16.0 days, the T/C ([7]; 0.13 mg/kg/day ip, Q1D × 9) was 123% and the “MST (median survival time)” value ([7]; 0.25 mg/kg/day ip, Q1D × 9) was 18.0 days. For the same compound, the “MST (median survival time)” value ([7]; 0.25 mg/kg/day ip, Q4D × 3) was 14.5 days, the T/C ([7]; 0.25 mg/kg/day ip, Q4D × 3) was 112% and the “MST (median survival time)” value ([7]; 0.5 mg/kg/day ip, Q1D × 9) was 19.5 days. For the same compound, the “MST (median survival time)” value ([7]; 0.5 mg/kg/day ip, Q4D × 3) was 15.5 days, the T/C ([7]; 0.5 mg/kg/day ip, Q4D × 3) was 119% and the “MST (median survival time)” value ([7]; 1 mg/kg/day ip, Q1D × 9) was 19.0 days. For the same compound, the “MST (median survival time)” value ([7]; 1 mg/kg/day ip, Q4D × 3) was 15.5 days, the T/C ([7]; 1 mg/kg/day ip, Q4D × 3) was 119% and the “MST (median survival time)” value ([7]; 2 mg/kg/day ip, Q4D × 3) was 17.0 days. For the same compound, the “MST (median survival time)” value ([7]; 4 mg/kg/day ip, Q4D × 3) was 16.5 days, the “antitumor activity against B16 melanoma (in words)” value ([7]; ip, either Q4D×3 or Q1D×9 treatment schedule) was “significant antitumor activities” and the “MST (median survival time)” value ([8]; 0.063 mg/kg/day ip) was 10.5 days. For the same compound, the T/C ([8]; 0.063 mg/kg/day ip) was 105%, the “MST (median survival time)” value ([8]; 0.13 mg/kg/day ip) was 11.0 days and the T/C ([8]; 0.13 mg/kg/day ip) was 110%. The “MST (median survival time)” value ([8]; 0.25 mg/kg/day ip) was 11.5 days, the T/C ([8]; 0.25 mg/kg/day ip) was 115% and the “MST (median survival time)” value ([8]; 0.5 mg/kg/day ip) was 13.0 days. The “MST (median survival time)” value ([8]; 1 mg/kg/day ip) was 10.5 days, the T/C ([8]; 1 mg/kg/day ip) was 105% and the “solubility in ethyl acetate” value ([9]; ethyl acetate) was “readily soluble”. The solubility in methanol ([9]; methanol) was “readily soluble”, the “solubility in methylene chloride” value ([9]; methylene chloride) was “readily soluble” and the solubility in water ([9]; water) was “practically insoluble”.
With CO[C@@]12[C@H](COC(N)=O)C3=C(C(=O)C(C)=C(N)C3=O)N1C[C@@H]1N[C@@H]12 [Mitomycin C, mitomycin C] the “Body Wt. change on day 5” value ([7]; 0.3 mg/kg/day ip, Q4D × 3) was -0.3 g, the “MST (median survival time)” value ([7]; 0.3 mg/kg/day ip, Q4D × 3) was 13.0 days and the T/C ([7]; 0.3 mg/kg/day ip, Q4D × 3) was 100%. For the same compound, the “Body Wt. change on day 5” value ([7]; 1 mg/kg/day ip, Q4D × 3) was -0.8 g, the “MST (median survival time)” value ([7]; 1 mg/kg/day ip, Q4D × 3) was 18.0 days and the “Body Wt. change on day 5” value ([7]; 3 mg/kg/day ip, Q4D × 3) was -0.3 g. The “MST (median survival time)” value ([7]; 3 mg/kg/day ip, Q4D × 3) was 28.0 days, the “Body Wt. change on day 4” value ([8]; 0.063 mg/kg/day ip) was “+0.8 g” and the “MST (median survival time)” value ([8]; 0.063 mg/kg/day ip) was 11.0 days. The T/C ([8]; 0.063 mg/kg/day ip) was 110%, the “Body Wt. change on day 4” value ([8]; 0.13 mg/kg/day ip) was “+1.3 g” and the “MST (median survival time)” value ([8]; 0.13 mg/kg/day ip) was 12.0 days. For the same compound, the T/C ([8]; 0.13 mg/kg/day ip) was 120%, the “Body Wt. change on day 4” value ([8]; 0.25 mg/kg/day ip) was “+1.0 g” and the “MST (median survival time)” value ([8]; 0.25 mg/kg/day ip) was 13.0 days. For the same compound, the “Body Wt. change on day 4” value ([8]; 0.5 mg/kg/day ip) was 0.0 g, the “MST (median survival time)” value ([8]; 0.5 mg/kg/day ip) was 15.5 days and the “Body Wt. change on day 4” value ([8]; 1 mg/kg/day ip) was -0.8 g. For the same compound, the “MST (median survival time)” value ([8]; 1 mg/kg/day ip) was 17.0 days.
